Results as given in the supplement of paper PMC10307832.

Tests used:
Assay in all cases: relative viability (nuclei count vs DMSO), 5 days (fraction); higher = more cells survive
Pictilisib + Trametinib = compound: CS(=O)(=O)N1CCN(Cc2cc3nc(-c4cccc5[nH]ncc45)nc(N4CCOCC4)c3s2)CC1 [Pictilisib] + CC(=O)Nc1cccc(-n2c(=O)n(C3CC3)c(=O)c3c(Nc4ccc(I)cc4F)n(C)c(=O)c(C)c32)c1 [Trametinib] (partner 0.02 µM)
Method in brief: (§1)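 Lung cancer cell lines were seeded in 1536-well plates and dosed by pin tool the next day, with either a single drug or a fixed anchor-drug dose combined with five library-drug doses (not always all listed) spaced in √10 steps. Five days later, one step fixed the cells and stained their nuclei (final 0.05% Triton X-100, 1% formaldehyde, 1 ug/ml Hoechst), and nuclei were counted on 4× images. Relative viability is the nuclei count in treated wells divided by the count in vehicle wells, and each value is the median of duplicate plates.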

Pictilisib + Pemetrexed = compound: CS(=O)(=O)N1CCN(Cc2cc3nc(-c4cccc5[nH]ncc45)nc(N4CCOCC4)c3s2)CC1 [Pictilisib] + Nc1nc2[nH]cc(CCc3ccc(C(=O)N[C@@H](CCC(=O)O)C(=O)O)cc3)c2c(=O)[nH]1 [Pemetrexed] (partner 0.2 µM)
Method in brief: as §1

MK-2206 + Bortezomib = compound: NC1(c2ccc(-c3nc4ccn5c(=O)[nH]nc5c4cc3-c3ccccc3)cc2)CCC1 [MK-2206] + CC(C)C[C@H](NC(=O)[C@H](Cc1ccccc1)NC(=O)c1cnccn1)B(O)O [Bortezomib] (partner 0.002 µM)
Method in brief: as §1

MK-2206 + Lapatinib = compound: NC1(c2ccc(-c3nc4ccn5c(=O)[nH]nc5c4cc3-c3ccccc3)cc2)CCC1 [MK-2206] + CS(=O)(=O)CCNCc1ccc(-c2ccc3ncnc(Nc4ccc(OCc5cccc(F)c5)c(Cl)c4)c3c2)o1 [Lapatinib] (partner 2 µM)
Method in brief: as §1

MK-2206 + Linsitinib = compound: NC1(c2ccc(-c3nc4ccn5c(=O)[nH]nc5c4cc3-c3ccccc3)cc2)CCC1 [MK-2206] + C[C@]1(O)C[C@@H](c2nc(-c3ccc4ccc(-c5ccccc5)nc4c3)c3c(N)nccn32)C1 [Linsitinib] (partner 1 µM)
Method in brief: as §1

| Cell Line | relative viability (Pictilisib + Trametinib; first compound 0.02 µM) | relative viability (Pictilisib + Trametinib; first compound 0.06325 µM) | relative viability (Pictilisib + Trametinib; first compound 0.6325 µM) | relative viability (Pictilisib + Trametinib; first compound 2 µM) | relative viability (Pictilisib + Pemetrexed; first compound 0.02 µM) | relative viability (Pictilisib + Pemetrexed; first compound 0.06325 µM) | relative viability (Pictilisib + Pemetrexed; first compound 0.6325 µM) | relative viability (Pictilisib + Pemetrexed; first compound 2 µM) | relative viability (MK-2206 + Bortezomib; first compound 0.01 µM) | relative viability (MK-2206 + Bortezomib; first compound 0.03162 µM) | relative viability (MK-2206 + Bortezomib; first compound 0.3162 µM) | relative viability (MK-2206 + Bortezomib; first compound 1 µM) | relative viability (MK-2206 + Lapatinib; first compound 0.01 µM) | relative viability (MK-2206 + Lapatinib; first compound 0.03162 µM) | relative viability (MK-2206 + Lapatinib; first compound 0.3162 µM) | relative viability (MK-2206 + Lapatinib; first compound 1 µM) | relative viability (MK-2206 + Linsitinib; first compound 0.01 µM) | relative viability (MK-2206 + Linsitinib; first compound 0.03162 µM) | relative viability (MK-2206 + Linsitinib; first compound 0.3162 µM) | relative viability (MK-2206 + Linsitinib; first compound 1 µM) |
| --- | --- | --- | --- | --- | --- | --- | --- | --- | --- | --- | --- | --- | --- | --- | --- | --- | --- | --- | --- | --- |
| NCI-H1437 | 0.472 | 0.418 | 0.289 | 0.194 | 0.317 | 0.318 | 0.274 | 0.215 | 0.521 | 0.531 | 0.444 | 0.529 | 0.778 | 0.783 | 0.815 | 0.475 | 0.99 | 1.08 | 0.948 | 0.951 |
| NCI-H647 | 0.554 | 0.464 | 0.307 | 0.126 | 0.172 | 0.175 | 0.143 | 0.141 | 1.06 | 1.27 | 0.959 | 0.644 | 1.01 | 1.15 | 1.06 | 0.521 | 1.18 | 1.1 | 1.07 | 1.03 |
| NCI-H2087 | 0.204 | 0.165 | 0.138 | 0.153 | 0.7 | 0.736 | 0.612 | 0.553 | 0.763 | 0.875 | 0.807 | 0.69 | 1.03 | 1.41 | 1.07 | 0.805 | 0.965 | 0.906 | 0.791 | 0.914 |
| BEN | 1.02 | 0.953 | 0.962 | 0.636 | 0.809 | 0.858 | 0.81 | 0.546 | 0.775 | 0.821 | 1 | 0.528 | 0.679 | 0.658 | 0.697 | 0.657 | 0.924 | 1.01 | 1.04 | 1.03 |
| NCI-H3122 | 0.201 | 0.202 | 0.161 | 0.122 | 0.189 | 0.196 | 0.192 | 0.172 | 1.03 | 0.942 | 1.09 | 0.973 | 1.01 | 1.07 | 1.06 | 1.1 | 0.942 | 1.07 | 0.927 | 0.91 |
| LCLC-97TM1 | 0.204 | 0.226 | 0.142 | 0.0739 | 0.155 | 0.169 | 0.169 | 0.147 | 0.415 | 0.593 | 0.39 | 0.44 | 1.67 | 1.35 | 0.697 | 0.52 | 0.219 | 0.171 | 0.177 | 0.174 |
| NCI-H2228 | 0.391 | 0.519 | 0.199 | 0.148 | 0.316 | 0.252 | 0.334 | 0.119 | 0.973 | 1.04 | 0.643 | 0.413 | 1.12 | 1.01 | 0.641 | 0.373 | 0.546 | 0.677 | 0.303 | 0.264 |
| COR-L23 | 0.596 | 0.582 | 0.384 | 0.285 | 0.187 | 0.185 | 0.199 | 0.19 | 0.913 | 1 | 1.18 | 0.989 | 0.949 | 1.03 | 0.92 | 1.1 | 0.909 | 0.996 | 1 | 0.693 |
